From ChEMBL document CHEMBL5126636, “Antibacterial Gilvocarcin-Type Aryl-C-Glycosides from a Soil-Derived Streptomyces Species” (2022) come the findings set out here.

For orientation: MIC means the least concentration at which growth counts as inhibited. A lower MIC goes with inhibition by little substance.

Holding throughout (assay type): functional
One assay deals with Candida albicans. Kind of assay: Antibacterial activity against Candida albicans ATCC 10231 by broth microdilution method.
Assay [1] concerns Staphylococcus aureus. Kind of assay: Antibacterial activity against Staphylococcus aureus ATCC 6538 by broth microdilution method. On the technique in general: Broth dilution looks for growth in wells or tubes with falling amounts of substance.
The test system of the next assay is Pseudomonas aeruginosa. Kind of assay: Antibacterial activity against Pseudomonas aeruginosa ATCC 10145 by broth microdilution method.
The next assay has as its system Nakaseomyces glabratus. Kind of assay: Antibacterial activity against Candida Candida glabrata ATCC 2001 by broth microdilution method.
For the next assay, the system named is Escherichia coli. Kind of assay: Antibacterial activity against Escherichia coli ATCC 11775 by broth microdilution method.
In assay [2] the test system is Staphylococcus aureus. Kind of assay: Antibacterial activity against methicillin resistant Staphylococcus aureus ATCC 43300 by broth microdilution method.

The structures appear in SMILES notation. ≈ marks a conversion by molar mass, not a printed value.

On to `C=Cc1cc(OC)c2c(c1)c(=O)oc1c2cc(OC)c2c(O)ccc([C@H]3O[C@@H]([C@@H](C)O)[C@H](O)[C@H]3O)c21`, for which the minimum inhibitory concentration (MIC) in the assay on Candida albicans is above 64 µg/mL; in the assay on Staphylococcus aureus [1] it was 0.5 µg/mL (≈ 1.01 µM); against Pseudomonas aeruginosa, above 64 µg/mL; with Nakaseomyces glabratus, above 64 µg/mL; with Escherichia coli, above 64 µg/mL; in the assay on Staphylococcus aureus [2], 0.25 µg/mL (≈ 0.506 µM).
For `C=Cc1cc(OC)c2c(c1)c(=O)oc1c2cc(OC)c2c(OC(C)=O)ccc([C@H]3O[C@@H]([C@@H](C)OC(C)=O)[C@H](OC(C)=O)[C@H]3OC(C)=O)c21`, the minimal inhibitory concentration (MIC) in the assay on Candida albicans, in the assay with Staphylococcus aureus [1], with Pseudomonas aeruginosa, against Nakaseomyces glabratus, with Escherichia coli and in the assay on Staphylococcus aureus [2] was above 64 µg/mL in each case.
Take `CCc1cc(OC)c2c(c1)c(=O)oc1c2cc(OC)c2c(O)ccc([C@H]3O[C@@H]([C@@H](C)O)[C@H](O)[C@H]3O)c21`: the minimum inhibitory concentration (MIC) in the assay with Candida albicans, in the assay on Staphylococcus aureus [1], against Pseudomonas aeruginosa, against Nakaseomyces glabratus, with Escherichia coli and in the assay on Staphylococcus aureus [2] was above 64 µg/mL throughout.
`COc1cc2c(oc(=O)c3cc(C(O)CCl)cc(OC)c32)c2c([C@H]3O[C@@H]([C@@H](C)O)[C@H](O)[C@H]3O)ccc(O)c12` (stereo partly drawn): the minimum inhibitory concentration (MIC) with Candida albicans, in the assay on Staphylococcus aureus [1], in the assay with Pseudomonas aeruginosa, in the assay with Nakaseomyces glabratus, against Escherichia coli and in the assay on Staphylococcus aureus [2] was above 64 µg/mL each time.
Turning to `COc1cc2c(oc(=O)c3cc([C@H]4CC[C@H]4c4cc(OC)c5c(c4)c(=O)oc4c5cc(OC)c5c(O)ccc([C@H]6O[C@@H]([C@@H](C)O)[C@H](O)[C@H]6O)c54)cc(OC)c32)c2c([C@H]3O[C@@H]([C@@H](C)O)[C@H](O)[C@H]3O)ccc(O)c12`, the MIC is above 64 µg/mL against Candida albicans; 8 µg/mL (≈ 8.09 µM) against Staphylococcus aureus [1]; above 64 µg/mL against Pseudomonas aeruginosa; above 64 µg/mL against Nakaseomyces glabratus; above 64 µg/mL with Escherichia coli; 4 µg/mL (≈ 4.04 µM) with Staphylococcus aureus [2].
Consider `COc1cc2c(oc(=O)c3cc(C(C)C)cc(OC)c32)c2c([C@H]3O[C@@H]([C@@H](C)O)[C@H](O)[C@H]3O)ccc(O)c12`, for which the MIC is above 64 µg/mL against Candida albicans; above 64 µg/mL against Staphylococcus aureus [1]; above 64 µg/mL against Pseudomonas aeruginosa; above 64 µg/mL in the assay with Nakaseomyces glabratus; above 64 µg/mL in the assay on Escherichia coli; 16 µg/mL (≈ 31.3 µM) with Staphylococcus aureus [2].
As for `COc1cc2c(oc(=O)c3cc(C)cc(OC)c32)c2c([C@H]3O[C@@H]([C@@H](C)OC(C)=O)[C@H](OC(C)=O)[C@H]3OC(C)=O)ccc(OC(C)=O)c12`, the MIC against Candida albicans, against Staphylococcus aureus [1], against Pseudomonas aeruginosa, against Nakaseomyces glabratus, with Escherichia coli and against Staphylococcus aureus [2] was above 64 µg/mL throughout.
As for `COc1cc2c(oc(=O)c3cc(CO)cc(OC)c32)c2c([C@H]3O[C@@H]([C@@H](C)O)[C@H](O)[C@H]3O)ccc(O)c12`, the MIC against Candida albicans, against Staphylococcus aureus [1], against Pseudomonas aeruginosa, against Nakaseomyces glabratus, against Escherichia coli and with Staphylococcus aureus [2] was above 64 µg/mL in each case.
As for `C=Cc1cc(OC)c2c(c1)c(=O)oc1c2cc(OC)c2c(O)ccc([C@@H]3O[C@@H]([C@@H](C)O)[C@H](O)[C@H]3O)c21`, the MIC with Candida albicans was above 64 µg/mL; in the assay on Staphylococcus aureus [1], 64 µg/mL (≈ 129 µM); against Pseudomonas aeruginosa it was above 64 µg/mL; against Nakaseomyces glabratus it was above 64 µg/mL; with Escherichia coli it was above 64 µg/mL; with Staphylococcus aureus [2] it was 16 µg/mL (≈ 32.4 µM).
For `COc1cc2c(oc(=O)c3cc([C@H](C)OC(C)=O)cc(OC)c32)c2c([C@H]3O[C@@H]([C@@H](C)OC(C)=O)[C@H](OC(C)=O)[C@H]3OC(C)=O)ccc(OC(C)=O)c12`, the MIC against Candida albicans, in the assay with Staphylococcus aureus [1], against Pseudomonas aeruginosa, against Nakaseomyces glabratus, against Escherichia coli and in the assay with Staphylococcus aureus [2] was above 64 µg/mL in each case.
Regarding `COc1cc2c(oc(=O)c3cc(C(O)CO)cc(OC)c32)c2c([C@H]3O[C@@H]([C@@H](C)O)[C@H](O)[C@H]3O)ccc(O)c12` (stereo partly drawn), the MIC in the assay on Candida albicans, in the assay with Staphylococcus aureus [1], against Pseudomonas aeruginosa, in the assay with Nakaseomyces glabratus, against Escherichia coli and with Staphylococcus aureus [2] was above 64 µg/mL each time.
In the case of `COc1cc2c(oc(=O)c3cc([C@H](C)O)cc(OC)c32)c2c([C@H]3O[C@@H]([C@@H](C)O)[C@H](O)[C@H]3O)ccc(O)c12`, the minimal inhibitory concentration (MIC) against Candida albicans, with Staphylococcus aureus [1], against Pseudomonas aeruginosa, with Nakaseomyces glabratus, against Escherichia coli and against Staphylococcus aureus [2] was above 64 µg/mL throughout.
Turning to `COc1cc2c(oc(=O)c3cc(CCO)cc(OC)c32)c2c([C@H]3O[C@@H]([C@@H](C)O)[C@H](O)[C@H]3O)ccc(O)c12`, the MIC is above 64 µg/mL against Candida albicans; 32 µg/mL (≈ 62.4 µM) with Staphylococcus aureus [1]; above 64 µg/mL against Pseudomonas aeruginosa; above 64 µg/mL against Nakaseomyces glabratus; above 64 µg/mL against Escherichia coli; 64 µg/mL (≈ 125 µM) against Staphylococcus aureus [2].
As to `C=Cc1cc(OC)c2c(c1)c(=O)oc1c3cccc(O)c3c(OC)cc12`, the minimal inhibitory concentration (MIC) against Candida albicans, with Staphylococcus aureus [1], in the assay on Pseudomonas aeruginosa, in the assay with Nakaseomyces glabratus, against Escherichia coli and against Staphylococcus aureus [2] was above 64 µg/mL throughout.
On to `COc1cc2c(oc(=O)c3cc(C)cc(OC)c32)c2c([C@H]3O[C@@H]([C@@H](C)O)[C@H](O)[C@H]3O)ccc(O)c12`, for which the MIC with Candida albicans is above 64 µg/mL; against Staphylococcus aureus [1], 1 µg/mL (≈ 2.07 µM); with Pseudomonas aeruginosa it was above 64 µg/mL; against Nakaseomyces glabratus, above 64 µg/mL; against Escherichia coli, above 64 µg/mL; against Staphylococcus aureus [2], 2 µg/mL (≈ 4.15 µM).
As to `C=Cc1cc(OC)c2c(c1)c(=O)oc1c2cc(OC)c2c(O)ccc([C@@H]3O[C@@H]([C@H](O)CO)[C@H](O)[C@H]3O)c21`, the minimal inhibitory concentration (MIC) against Candida albicans is above 64 µg/mL; against Staphylococcus aureus [1] it was 16 µg/mL (≈ 31.3 µM); in the assay with Pseudomonas aeruginosa, above 64 µg/mL; in the assay on Nakaseomyces glabratus, above 64 µg/mL; against Escherichia coli it was above 64 µg/mL; with Staphylococcus aureus [2] it was 8 µg/mL (≈ 15.7 µM).
Turning to `O=C(O)c1cn(C2CC2)c2cc(N3CCNCC3)c(F)cc2c1=O` [CIPROFLOXACIN], the minimum inhibitory concentration (MIC) stood at 0.25 µg/mL (≈ 0.754 µM) against Staphylococcus aureus [1] and 0.5 µg/mL (≈ 1.51 µM) against Staphylococcus aureus [2].
